Assay results reported in patent US6875761B2 (Eisai Co., Ltd., priority 1997, dated 2005).
Structures can show the parent of a compound that is named as a salt.

Experiments:
serotonin 1A receptor = target: T1, serotonin 1A receptor (Rattus norvegicus, UniProt P19327); experiment: Binding test on [3H] 8-hydroxy-dipropylaminotetralin, hippocampus receptor fraction; parameters: species or system SD rats; details: rat hippocampus receptor fraction, 0.5 nM [3H] 8-OH-DPAT, room temperature 30 min; read-out: 5HT1
T1 construct: To the receptor fraction of the hippocampus were added a test compound and 0.5 nM of [^3H]; 8-hydroxy-dipropylaminotetralin; from tissue; host or cells: rat hippocampus membrane fraction
T1 sequence (P19327 1-422): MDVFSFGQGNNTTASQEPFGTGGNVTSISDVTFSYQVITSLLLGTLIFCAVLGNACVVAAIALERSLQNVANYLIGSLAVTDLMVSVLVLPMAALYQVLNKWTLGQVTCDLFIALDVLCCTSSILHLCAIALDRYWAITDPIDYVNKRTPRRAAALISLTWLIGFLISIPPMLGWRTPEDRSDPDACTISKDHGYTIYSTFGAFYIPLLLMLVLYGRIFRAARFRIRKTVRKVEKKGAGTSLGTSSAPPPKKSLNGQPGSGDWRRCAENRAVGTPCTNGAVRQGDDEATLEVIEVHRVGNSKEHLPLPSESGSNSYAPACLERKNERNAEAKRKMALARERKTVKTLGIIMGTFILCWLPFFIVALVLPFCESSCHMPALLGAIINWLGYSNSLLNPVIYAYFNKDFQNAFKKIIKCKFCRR

serotonin 2 receptor = target: T2, serotonin 2 receptor (Rattus norvegicus, UniProt P14842); experiment: Binding test on [3H] ketanserin, cerebral cortex receptor fraction; parameters: species or system SD rats; details: 0.3 nM [3H] ketanserin, 37° C. 15 min, read-out: 5HT2
T2 construct: To the receptor fraction of the cerebral cortex were added a test compound and 0.3 nM of [^3H] ketanserin; from tissue; host or cells: rat cerebral cortex membrane fraction
T2 sequence (P14842 whole entry): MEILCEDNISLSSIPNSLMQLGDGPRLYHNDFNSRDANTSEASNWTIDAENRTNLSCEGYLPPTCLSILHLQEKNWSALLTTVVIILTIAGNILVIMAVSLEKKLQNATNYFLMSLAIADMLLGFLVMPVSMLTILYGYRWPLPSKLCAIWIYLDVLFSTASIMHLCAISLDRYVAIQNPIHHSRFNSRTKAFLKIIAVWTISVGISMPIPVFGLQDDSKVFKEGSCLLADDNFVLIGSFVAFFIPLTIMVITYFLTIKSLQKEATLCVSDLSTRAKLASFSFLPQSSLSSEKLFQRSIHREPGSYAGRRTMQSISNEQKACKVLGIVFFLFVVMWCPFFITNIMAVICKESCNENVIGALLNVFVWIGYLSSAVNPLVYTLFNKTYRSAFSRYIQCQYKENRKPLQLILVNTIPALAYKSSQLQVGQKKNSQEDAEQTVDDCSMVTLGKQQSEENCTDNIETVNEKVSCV

α1 adrenalin receptor = experiment: Binding test on [3H] prazosin, cerebral cortex receptor fraction; parameters: species or system SD rats; details: rat cerebral cortex receptor fraction, about 0.2 nM [3H] prazosin, room temperature 60 min; read-out: α 1
Method: As radioisotope-labeled compounds, use was made of the following reagents (mfd. by NEN). • 3) [^3H] […] Prazosin.
Use was made of SD rats aged 6 to 8 weeks.
The rats were sacrificed by dcapitation to extirpate the cerebra.
Each mixture was homogenized by using a Teflon glass homogenizer and centrifuged as 1,000× g for 10 min. The supernatant thus obtained was further centrifuged at 20,000× g for 20 min. […] After centrifuging at 20,000× g for 20 min, the obtained precipitate was further suspended and centrifuged twice each in the same manner. […] This receptor fraction was stored at −80° C. until using.
IC50 was calculated by the probit method, while Ki was determined in accordance with the following formula: Ki=IC50(1+c/Kd) wherein c represents the concentration of the radioisotope-labeled compound, and Kd represents the dissociation constant of the radioisotope-labeled compound with respect to the receptor determined by Scatchard's analysis. (Binding test on [^3H] prazosin)
To the receptor fraction of the cerebral cortex were added a test compound and about 0.2 nM of [^3H] prazosin and the resultant mixture was incubated at room temperature for 60 min. Next, it was filtered through a glass filter with the use of a cell harvester. After washing the glass filter with 50 mM Tris hydrochloride (pH 7.4), the radioactivity of the receptor was measured with a liquid scintillation counter. The binding detected in the presence of 10 μM of phentolamine was referred to as the nonspecific binding.

| Compound | Ki (serotonin 1A receptor) [nM] | Ki (serotonin 2 receptor) [nM] | Ki (α1 adrenalin receptor) [nM] | melting point |
| --- | --- | --- | --- | --- |
| CCN1CCN(c2nc(-c3ccc(O)cc3)cc3ccccc23)CC1 [Example 7, 1-(4-ethylpiperazin-1-yl)-3-(4-hydroxyphenyl)isoquinoline] | 27.9 | 81.3 | 521 | 204 to 206 °C |
| CCCNC(=O)c1ccc(-c2cc3ccccc3c(N3CCN(CC)CC3)n2)cc1 [Example 63, 1-(4-Ethylpiperazin-1-Yl)-3-(4-N-Propylaminocarbonylphenyl)Isoquinoline Hydrochloride] | 18.1 | 0.84 | 252 |  |
| CCCC(=O)Nc1ccc(-c2cc3ccccc3c(N3CCN(CC)CC3)n2)cc1 [Example 70, 3-(4-Propylcarbonylaminophenyl]-1-(4-Ethylpiperazin-1-Yl)Isoquinoline Hydrochloride] | 23.3 | 5.5 | 1260 |  |
| CCCCS(=O)(=O)Nc1ccc(-c2cc3ccccc3c(N3CCN(CC)CC3)n2)cc1 [Example 73, 3-(4-Butylsulfonylaminophenyl)-1-(4-Ethylpiperazin-1-Yl)Isoquinoline Hydrochloride] | 13 | 3.3 | 699 |  |
| CCN1CCN(c2nc(-c3ccccn3)cc3ccccc23)CC1 [Example 123, 1-(4-Ethylpiperazin-1-yl)-3-(2-Pyridyl)Isoquinoline Dihydrochloride] | 34 | 29.1 | 553 |  |
| CCN1CCN(c2nc(-c3ccc(OCCOC)nc3)cc3ccccc23)CC1 [Example 126, 1-(1-Ethylpiperazin-4-yl)-3-[2-(2-Methoxyethoxy)Pyridin-5-yl]Isoquinoline] | 26.4 | 5.7 | 382 |  |
| CCN1CCN(c2nc(-c3ccc(CCCOC)nc3)cc3ccccc23)CC1 [Example 139, 1-(1-Ethylpiperazin-4-yl)-3-[2-(3-Methoxypropyl)Pyridin-5-yl]Isoquinoline Oxalate] | 2.7 | 5.1 | 374 |  |
| CCN1CCN(c2nc(-c3ccc(N4CCOCC4)cc3)cc3ccccc23)CC1 [Example 160, 3-[4-(4-morpholinyl)phenyl]-1-(4-ethylpiperazin-1-yl)isoquinoline dihydrochloride] | 22.2 | 0.7 | 536 |  |
| CCN1CCN(c2nc(-c3cnc(N4CCOCC4)s3)cc3ccccc23)CC1 [Example 173, 1-(1-ethylpiperazin-4-yl)-3-[2-(4-morpholinyl)-5-thiazolyl]isoquinoline dihydrochloride] | 3.9 | 4.8 | 284 |  |
| CCN1CCN(c2nc(C#Cc3ccccn3)cc3ccccc23)CC1 [Example 179, 1-(1-Ethylpiperazin-4-Yl)-3-(2-Pyridyl)Ethynylisoquinoline Oxalate] | 5.3 | 0.4 | 208 |  |
| CCN1CCN(c2nc(C#CCc3ccccc3)cc3ccccc23)CC1 [Example 181, 1-(1-Ethylpiperazin-4-Yl)-3-(3-Phenyl-1-Propynyl)Isoquinoline Oxalate] | 17.9 | 6.7 | 920 |  |
| CCN1CCN(c2nc(C#Cc3ccc(OCCO)cc3)cc3ccccc23)CC1 [Example 183, 1-(1-Ethylpiperazin-4-Yl]-3-[4-(2-Hydroxyethoxy)Phenylethynyl]Isoquinoline Dihydrochloride] | 14.1 | 3.36 | 577 |  |
| CCN1CCN(c2nc(C#Cc3ccccc3OCCO)cc3ccccc23)CC1 [Example 187, 1-(1-Ethylpiperazin-4-Yl)-3-[2-(2-Hydroxyethoxylphenyl]Ethynylisoquinoline Oxalate] | 9.81 | 2.53 | 969 |  |
| CCN1CCN(c2nc(/C=C/c3ccccc3S(C)(=O)=O)cc3ccccc23)CC1.Cl [Example 202, 3-[(E)-2-(2-Methylsulfonylphenyl)Ethenyl]-1-(4-Ethylpiperazin-1-Yl)Isoquinoline Hydrochloride] | 14.6 | 2.22 | > 2000 | 146 to 149 °C |
| CCN1CCN(c2nc(NCc3ccc(OC)cc3)cc3ccccc23)CC1 [Example 220, 1-(1-ethylpiperazin-4-yl)-3-(4-methoxybenzylamino)isoquinoline oxalate] | 0.53 | 2.01 | 3800 |  |
| CCN1CCN(c2nc(-c3ccc(OCCO)cc3)cc3ccsc23)CC1 [Example 259, 7-(4-ethylpiperazin-1-yl)-5-(4-hydroxyethoxyphenyl)thieno[2,3-c]pyridine Hydrochloride] | 9.26 | 18.9 | 405 |  |
| CCN1CCN(c2nc(-c3ccc(C(C)O)cc3)cc3sccc23)CC1 (stereo not drawn) [Example 281, 4-(4-ethylpiperazin-1-yl)-6-[4-(1-hydroxyethyl)phenyl]thieno[3,2-c]pyridine oxalate] | 15 | 16.9 | 345 |  |
| CCN1CCN(c2nc(-c3ccc(CCC(C)O)cc3)cc3ccoc23)CC1 (stereo not drawn) [Example 300, 7-(1-ethylpiperazin-4-yl)-5-[4-(3-hydroxybutyl)phenyl]furo[2,3-c]pyridine dihydrochloride] | 0.49 | 9.06 | > 2000 |  |
| CCN1CCN(c2nc(-c3ccc(OCCCO)cc3)cc3ccccc23)CC1.Cl.Cl [Example 331, 1-(4-ethylpiperazin-1-yl)-3-[4-(3-hydroxypropoxy)phenyl]isoquinoline dihydrochloride] | 23.6 | 5.9 | 722 | 112 to 113 °C (dec.) |
| CCN1CCN(c2nc(-c3ccc4c(c3)CC(CO)C4)cc3ccccc23)CC1 (stereo not drawn) [Example 393, 1-(4-Ethylpiperazin-1-yl)-3-(2-Hydroxymethylindan-5-yl)Isoquinoline Dihydrochloride] | 13.1 | 1.8 | 242 |  |
| CCN1CCN(c2nc(-c3ccc(CCC(C)(C)O)c(F)c3)cc3ccccc23)CC1 [Example 416, 1-(4-ethylpiperazin-1-yl)-3-[4-(3-hydroxy-3-methylbutyl)-3-fluorophenyl]isoquinoline] | 31.2 | 0.7 | 174 |  |
